Data taken from US20100215579A1, “PHEN-NAPHTHALENE AND PHEN-QUINOLINE DERIVATIVES AND THEIR USE FOR BINDING AND IMAGING AMYLOID PLAQUES” (The Trustees of the University of Pennsylvania, priority 2007, published 2010).

What was measured:
[1] = Log P (octanol/Na2HPO4 buffer pH 7.4); type: physicochemical; conditions: pH 7.4
[2] = Biodistribution in ICR mice after an iv injection; type: in vivo
Excerpt: Biodistribution in ICR Mice After an iv Injection of [^18F][4-(6-{2-[2-(2-Fluoro-ethoxy)-ethoxy]-ethoxy}-naphthalen-2-yl)-phenyl]-methyl-amine in 1% EtOH/0.1% BSA in Water
(% dose/organ, avg of 3 mice±SD)
(% dose/g, avg of 3 mice±SD)
Biodistribution in ICR Mice After an iv Injection of [^18F]19a in 3% EtOH/0.1% BSA in Water
Biodistribution in ICR Mice After an iv Injection of [^18F]34a in 5% EtOH/0.1% BSA in Water
Biodistribution in ICR Mice After an iv Injection of [^18F]32a in 1% EtOH/0.1% BSA in Water

[3] = Blood, 2 min after iv injection
[4] = Blood, 30 min after iv injection
[5] = Bone, 30 min after iv injection
[6] = Brain, 2 min after iv injection
[7] = Brain, 30 min after iv injection
[8] = Heart, 2 min after iv injection
[9] = Heart, 30 min after iv injection
[10] = Kidney, 2 min after iv injection
[11] = Kidney, 30 min after iv injection
[12] = Kidney, 1 hr after iv injection
[13] = Kidney, 2 hr after iv injection
[14] = Liver, 2 min after iv injection
[15] = Liver, 30 min after iv injection
[16] = Lung, 30 min after iv injection
[17] = Muscle, 2 min after iv injection
[18] = Muscle, 30 min after iv injection
[19] = Muscle, 1 hr after iv injection
[20] = Muscle, 2 hr after iv injection
[21] = Skin, 30 min after iv injection
[22] = Spleen, 2 min after iv injection
[23] = Spleen, 30 min after iv injection
[24] = Spleen, 1 hr after iv injection
[25] = Spleen, 2 hr after iv injection

Log P [1]: 2.60
% dose/g [2, 3]: 6.66 ± 0.86 % dose/g
% dose/organ [2, 3]: 11.1 ± 0.91 % dose/organ
% dose/g [2, 4]: 4.15 ± 0.59 % dose/g
% dose/organ [2, 4]: 6.94 ± 0.59 % dose/organ
% dose/g ([2]; Blood, 1 hr after iv injection): 3.14 ± 0.37 % dose/g
% dose/organ ([2]; Blood, 1 hr after iv injection): 4.94 ± 0.09 % dose/organ
% dose/g ([2]; Blood, 2 hr after iv injection): 3.05 ± 0.26 % dose/g
% dose/organ ([2]; Blood, 2 hr after iv injection): 5.19 ± 0.14 % dose/organ
% dose/g ([2]; Bone, 2 min after iv injection): 1.32 ± 0.18 % dose/g
% dose/organ ([2]; Bone, 2 min after iv injection): 4.42 ± 0.82 % dose/organ
% dose/g [2, 5]: 0.78 ± 0.10 % dose/g
% dose/organ [2, 5]: 2.59 ± 0.17 % dose/organ
% dose/g ([2]; Bone, 1 hr after iv injection): 0.82 ± 0.21 % dose/g
% dose/organ ([2]; Bone, 1 hr after iv injection): 2.60 ± 0.41 % dose/organ
% dose/g ([2]; Bone, 2 hr after iv injection): 1.37 ± 0.15 % dose/g
% dose/organ ([2]; Bone, 2 hr after iv injection): 4.67 ± 0.26 % dose/organ
% dose/g [2, 6]: 5.55 ± 0.77 % dose/g
% dose/organ [2, 6]: 2.51 ± 0.29 % dose/organ
% dose/g [2, 7]: 1.29 ± 0.19 % dose/g
% dose/organ [2, 7]: 0.59 ± 0.07 % dose/organ
% dose/g ([2]; Brain, 1 hr after iv injection): 1.05 ± 0.20 % dose/g
% dose/organ ([2]; Brain, 1 hr after iv injection): 0.48 ± 0.06 % dose/organ
% dose/g ([2]; Brain, 2 hr after iv injection): 0.92 ± 0.10 % dose/g
% dose/organ ([2]; Brain, 2 hr after iv injection): 0.42 ± 0.06 % dose/organ
% dose/g [2, 8]: 5.67 ± 0.42 % dose/g
% dose/organ [2, 8]: 0.63 ± 0.02 % dose/organ
% dose/g [2, 9]: 1.74 ± 0.19 % dose/g
% dose/organ [2, 9]: 0.21 ± 0.02 % dose/organ
% dose/g ([2]; Heart, 1 hr after iv injection): 1.69 ± 0.35 % dose/g
% dose/organ ([2]; Heart, 1 hr after iv injection): 0.18 ± 0.01 % dose/organ
% dose/g ([2]; Heart, 2 hr after iv injection): 1.40 ± 0.08 % dose/g
% dose/organ ([2]; Heart, 2 hr after iv injection): 0.16 ± 0.01 % dose/organ
% dose/g [2, 10]: 7.88 ± 0.94 % dose/g
% dose/organ [2, 10]: 3.06 ± 0.21 % dose/organ
% dose/g [2, 11]: 3.61 ± 0.98 % dose/g
% dose/organ [2, 11]: 1.38 ± 0.26 % dose/organ
% dose/g [2, 12]: 3.82 ± 1.54 % dose/g
% dose/organ [2, 12]: 1.37 ± 0.25 % dose/organ
% dose/g [2, 13]: 2.41 ± 0.42 % dose/g
% dose/organ [2, 13]: 0.88 ± 0.12 % dose/organ
% dose/g [2, 14]: 27.0 ± 0.91 % dose/g
% dose/organ [2, 14]: 32.0 ± 1.81 % dose/organ
% dose/g [2, 15]: 21.5 ± 2.08 % dose/g
% dose/organ [2, 15]: 25.7 ± 0.95 % dose/organ
% dose/g ([2]; Liver, 1 hr after iv injection): 14.1 ± 1.85 % dose/g
% dose/organ ([2]; Liver, 1 hr after iv injection): 15.7 ± 1.34 % dose/organ
% dose/g ([2]; Liver, 2 hr after iv injection): 8.85 ± 0.76 % dose/g
% dose/organ ([2]; Liver, 2 hr after iv injection): 10.6 ± 0.65 % dose/organ
% dose/g ([2]; Lung, 2 min after iv injection): 9.19 ± 1.18 % dose/g
% dose/organ ([2]; Lung, 2 min after iv injection): 1.76 ± 0.20 % dose/organ
% dose/g [2, 16]: 3.44 ± 0.49 % dose/g
% dose/organ [2, 16]: 0.67 ± 0.05 % dose/organ
% dose/g ([2]; Lung, 1 hr after iv injection): 2.68 ± 0.48 % dose/g
% dose/organ ([2]; Lung, 1 hr after iv injection): 0.41 ± 0.07 % dose/organ
% dose/g ([2]; Lung, 2 hr after iv injection): 2.48 ± 0.48 % dose/g
% dose/organ ([2]; Lung, 2 hr after iv injection): 0.45 ± 0.11 % dose/organ
% dose/g [2, 17]: 0.77 ± 0.14 % dose/g
% dose/organ [2, 17]: 7.42 ± 1.87 % dose/organ
% dose/g [2, 18]: 0.75 ± 0.09 % dose/g
% dose/organ [2, 18]: 7.22 ± 0.42 % dose/organ
% dose/g [2, 19]: 0.87 ± 0.03 % dose/g
% dose/organ [2, 19]: 7.86 ± 0.68 % dose/organ
% dose/g [2, 20]: 0.62 ± 0.11 % dose/g
% dose/organ [2, 20]: 6.02 ± 0.62 % dose/organ
% dose/g ([2]; Skin, 2 min after iv injection): 0.70 ± 0.04 % dose/g
% dose/organ ([2]; Skin, 2 min after iv injection): 2.51 ± 0.07 % dose/organ
% dose/g [2, 21]: 1.37 ± 0.11 % dose/g
% dose/organ [2, 21]: 4.93 ± 0.08 % dose/organ
% dose/g ([2]; Skin, 1 hr after iv injection): 1.32 ± 0.18 % dose/g
% dose/organ ([2]; Skin, 1 hr after iv injection): 4.46 ± 0.05 % dose/organ
% dose/g ([2]; Skin, 2 hr after iv injection): 0.77 ± 0.13 % dose/g
% dose/organ ([2]; Skin, 2 hr after iv injection): 2.81 ± 0.29 % dose/organ
% dose/g [2, 22]: 6.94 ± 0.99 % dose/g
% dose/organ [2, 22]: 0.79 ± 0.29 % dose/organ
% dose/g [2, 23]: 5.03 ± 1.18 % dose/g
% dose/organ [2, 23]: 0.53 ± 0.04 % dose/organ
% dose/g [2, 24]: 3.60 ± 0.15 % dose/g
% dose/organ [2, 24]: 0.30 ± 0.00 % dose/organ
% dose/g [2, 25]: 3.38 ± 0.52 % dose/g
% dose/organ [2, 25]: 0.31 ± 0.02 % dose/organ
SMILES: CNc1ccc2cc(-c3ccc(OCCOCCOCC[18F])cc3)ccc2c1 [[^18F]19a]
